Reference: patent US20020010317A1, “Method for generating immunogens that elicit neutralizing antibodies against fusion-active regions of HIV envelope proteins” (priority 2000, published 2002)

Key:
[1] = target: gp41 (HXB2 strain) (Human immunodeficiency virus type 1 group M subtype B, UniProt P04578)
[2] = tested on: divergent HIV-1 virus isolates; assay: immunization of guinea pigs with P-18, neutralizing antibody response; type: in vivo, guinea pig; conditions: two of three animals; 100 μg intramuscularly in Freund's adjuvant
Method: Antibody binding assays can be used to determine the ability of the immunogen vaccines to generate an immune response to various forms of envelope (native vs. denatured). Virus neutralization assays can be used to characterize the antibody response raised against the gp41 domains. The most encouraging results have been from animals immunized with the peptide P-18 modeling the C-helix entry domain (amino acid residues 643-678 of gp41 ).
Guinea pigs were immunized intramuscularly with 100 μg of P-18 formulated in either Freund's complete (prime) or incomplete (boost) adjuvant. Animals were immunized on days 0, 21, 34, 48 and 62. Blood was collected on days 44,58 and 72. In our initial screen, sera at a 1:10 dilution were tested for the ability to inhibit virus-induced cell killing. In these assays, two of the three animals receiving the P-18 peptide (guinea pigs 233 and 234) were able to block the cytopathic effects of a pair of prototypic HIV-1 isolates. Against the MN isolate, >80% protection was achieved, while against the RF isolate, protection was >50%.

[3] = tested on: HIV-1 envelope mediated cell-cell fusion; conditions: cited from earlier work

Sequence of gp41 (HXB2 strain) (P04578 512-856): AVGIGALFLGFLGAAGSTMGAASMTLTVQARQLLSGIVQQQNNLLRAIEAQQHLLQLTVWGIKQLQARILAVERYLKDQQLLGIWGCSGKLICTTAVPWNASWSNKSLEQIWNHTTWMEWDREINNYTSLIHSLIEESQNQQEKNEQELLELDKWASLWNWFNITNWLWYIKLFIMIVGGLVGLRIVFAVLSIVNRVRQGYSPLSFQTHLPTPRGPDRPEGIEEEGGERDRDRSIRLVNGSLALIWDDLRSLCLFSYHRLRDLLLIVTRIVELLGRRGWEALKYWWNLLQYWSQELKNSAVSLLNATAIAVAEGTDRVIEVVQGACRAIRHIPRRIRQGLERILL

For P-18-GGG-YPYDVPDYAGPG [P-18HA], the “binding to and co-immunoprecipitation of gp41” value [1] was “bound to and co-immunoprecipitated gp41”.
For enfuvirtide, the “neutralizing antibody response in immunized animals” value [2] is listed as “exhibited a neutralizing antibody response against divergent virus isolates” and the “concentration inhibiting envelope mediated cell-cell fusion” value ([3]; concentrations as low as) is listed as “about 1 ng/ml”.
For “NNLLRAIEAQQHLLQLTVWQIKQLQARILAVERYLKDQ (NNLLRAIEAQQHLLQLTVWGIKQLQARILAVERYLKDQ) [DP-107]”, the “level inhibiting cell-cell fusion” value [3] is listed as “sub-μg/ml levels”.
